Reference: patent US7928139B2 (Amgen Inc., priority 2006, dated 2011)
pIC50: −log10 of the molar value.

Target: HIF PHD2 (Homo sapiens, UniProt Q9GZT9)
Experiment: PHD2 inhibition assay (TR-FRET, VCB-Eu detection of hydroxylated P564-HIF1α peptide)
Assay type: biochemical
Details: 2 nM PHD2, 100 nM P564-HIF1α peptide, 0.25 μM 2-oxoglutarate, 100 μM FeCl2, 2 mM ascorbic acid
Procedure: Inhibition of HIF PHD2 activity was quantified utilizing the TR-FRET technology. HIF PHD2 catalyzes a hydroxyl modification on the proline residue of the P564-HIF1α peptide substrate (Biotin-DLEMLAPYIPMDDDFQL (SEQ ID NO: 7)) resulting in recognition and binding of the europylated Von Hippel-Lindau protein (pVHL), elongin B and elongin C heterotrimeric (VCB-Eu) complex.
The PHD2 inhibition assay was executed by addition of freshly dissolved FeCl2 to 178.57 μM (100 μM final concentration) in PHD2 Reaction Buffer containing 30 mM MES, pH 6, 10 mM NaCl, 0.25% Brij-35, 0.01% BSA, and 1% DMSO. 28 μL of the iron solution and 2 μL of inhibitor compounds serially diluted in 100% DMSO (5% DMSO final) were added to black polypropylene 96-well microtiter plates. To that, 10 μL of 10 nM PHD2 (2 nM final) was added to all wells of the plate except for the 8 wells of column 12 (LO control), and allowed to incubate at room temperature on the shaker for one hour. Column 6 was the HI control containing PHD2 enzyme and 5% DMSO vehicle, but no inhibitor compound. To initiate the PHD2 enzymatic reaction, 10 μL of a solution containing 500 nM P564-HIF1α peptide (100 nM final), 10 mM ascorbic acid (2 mM final), and 1.25 μM 2-oxoglutarate (α-ketoglutarate; 0.25 μM final) in PHD2 Reaction Buffer was added to all wells of the plate and allowed to incubate on the shaker at room temperature for one hour.
The reaction was terminated by addition of 25 μL TR-FRET Buffer (50 mM TRIS-HCl, pH 9, 100 mM NaCl, 0.05% BSA, and 0.5% Tween-20) containing 150 mM succinate (product inhibitor; 50 mM final), 75 nM streptavidin-APC (25 nM final), and 7.5 nM VCB-Eu (2.5 nM final). The TR-FRET detection reagents were placed on a shaker for 1 hour to reach binding equilibrium before reading on the Discovery platform (PerkinElmer). Europium is excited at 315 nm and phosphoresces at 615 nm with a large Stoke's shift. APC, in turn, emits at 655 nm upon excitation at 615 nm. The TR-FRET signal is measured as the ratio of the APC 655 nm signal divided by the internal europium reference 615 nm emission signal.
The POC (percentage of control) was determined by comparing the signal from hydroxylated peptide substrate in the enzyme reaction containing inhibitor compound with that from PHD2 enzyme with DMSO vehicle alone (HI control), and no enzyme (LO control). POC was calculated using the formula: % control (POC)=(cpd−average LO)/(average HI−average LO)*100. Data (consisting of POC and inhibitor concentration in μM) was fitted to a 4-parameter equation (y=A+((B−A)/(1+((x/C)^D))), where A is the minimum y (POC) value, B is the maximum y (POC), C is the x (cpd concentration) at the point of inflection and D is the slope factor) using a Levenburg-Marquardt non-linear regression algorithm.

Sequence of HIF PHD2 (Q9GZT9 whole entry): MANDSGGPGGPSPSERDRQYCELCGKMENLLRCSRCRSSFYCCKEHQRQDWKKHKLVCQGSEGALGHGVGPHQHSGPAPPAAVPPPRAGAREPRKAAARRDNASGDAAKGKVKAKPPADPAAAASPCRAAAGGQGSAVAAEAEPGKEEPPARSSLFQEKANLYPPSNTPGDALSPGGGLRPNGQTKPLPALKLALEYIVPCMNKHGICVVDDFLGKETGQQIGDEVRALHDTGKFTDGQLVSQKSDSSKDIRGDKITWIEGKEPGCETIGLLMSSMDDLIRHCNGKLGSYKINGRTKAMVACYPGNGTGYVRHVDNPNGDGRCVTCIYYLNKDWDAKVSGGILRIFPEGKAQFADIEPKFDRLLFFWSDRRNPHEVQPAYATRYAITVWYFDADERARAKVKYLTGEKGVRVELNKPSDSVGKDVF

Row | Structure (SMILES) | pIC50
1 | C[C@@]1(c2ccc(Cl)cc2)C(=O)C(C(=O)NCC(=O)O)=C(O)c2cc(Cl)ccc21 (single isomer, unassigned) [Example 29] | 6.30 to 7.00
2 | C[C@]1(c2ccc(Cl)cc2)C(=O)C(C(=O)NCC(=O)O)=C(O)c2cc(Cl)ccc21 (single isomer, unassigned) [Example 30] | 6.00 to 6.30
3 | CCC1(C)C(=O)C(C(=O)NCC(=O)O)=C(O)c2cc(Cl)ccc21 (single isomer, unassigned) [Example 78] | 6.30 to 7.00
4 | C[C@@]1(c2ccccc2)C(O)=C(C(=O)NCC(=O)O)C(=O)c2ccccc21 (single isomer, unassigned) [Example 114, N-(((4S)-3-Hydroxy-4-methyl-1-oxo-4-phenyl-1,4-dihydro-2-naphthalenyl)carbonyl)glycine or N-(((4R)-3-Hydroxy-4-methyl-1-oxo-4-phenyl-1,4-dihydro-2-naphthalenyl)carbonyl)glycine] | 6.30 to 7.00
5 | C[C@@]1(C#N)C(=O)C(C(=O)CCC(=O)O)=C(O)c2cc(Cl)ccc21 (single isomer, unassigned) [Example 120, 4-(7-chloro-4-cyano-1-hydroxy-4-methyl-3-oxo-3,4-dihydronaphthalen-2-yl)-4-oxobutanoic acid] | 5.00 to 6.00
6 | C[C@@]1(C#N)C(=O)C(C(=O)CCC(=O)O)=C(O)c2cc(Cl)ccc21 (single isomer, unassigned) [Example 124, (R)-4-(7-chloro-4-cyano-1-hydroxy-4-methyl-3-oxo-3,4-dihydronaphthalen-2-yl)-4-oxobutanoic acid or (S)-4-(7-chloro-4-cyano-1-hydroxy-4-methyl-3-oxo-3,4-dihydronaphthalen-2-yl)-4-oxobutanoic acid] | 5.00 to 6.00
7 | Cc1ccc(-c2ccc3c(c2)C(O)=C(C(=O)NCC(=O)O)C(=O)C3(C)C)c(F)n1 [Example 6, N-((6-(2-Fluoro-6-methyl-3-pyridinyl)-4-hydroxy-1,1-dimethyl-2-oxo-naphthalen-3-yl)carbonyl)glycine] | 6.30 to 7.00
8 | Cc1cc(-c2ccc3c(c2)C(O)=C(C(=O)NCC(=O)O)C(=O)C3(C)C)ccn1 [Example 7, N-((4-Hydroxy-1,1-dimethyl-6-(2-methyl-4-pyridinyl)-2-oxo-naphthalen-3-yl)carbonyl)glycine] | 6.30 to 7.00
9 | Cc1ncccc1-c1ccc2c(c1)C(O)=C(C(=O)NCC(=O)O)C(=O)C2(C)C [Example 8, N-((4-Hydroxy-1,1-dimethyl-6-(2-methyl-3-pyridinyl)-2-oxo-naphthalen-3-yl)carbonyl)glycine] | 6.30 to 7.00
10 | CC1(C)C(=O)C(C(=O)NCC(=O)O)=C(O)c2cc(-c3cncc(F)c3)ccc21 [Example 9, N-((6-(5-Fluoro-3-pyridinyl)-4-hydroxy-1,1-dimethyl-2-oxo-naphthalen-3-yl)carbonyl)glycine] | 5.00 to 6.00
11 | O=C(O)CNC(=O)C1=C(O)c2cc(Cl)ccc2C2(CCOC2)C1=O (centres unmarked) [Example 12, N-((6′-Chloro-4′-hydroxy-2′-oxo-4,5-dihydro-2′H-spiro[furan-3,1′-naphthalen]-3′-yl)carbonyl)glycine] | > 7.00
12 | CC1(C)C(=O)C(C(=O)NCC(=O)O)=C(O)c2cc(F)ccc21 [Example 13, N-((6-Fluoro-4-hydroxy-1,1-dimethyl-2-oxo-naphthalene-3-yl)carbonyl)glycine] | > 7.00
13 | COc1cc2c(cc1Br)C1(CCOCC1)C(=O)C(C(=O)NCC(=O)O)=C2O [Example 14, N-((7-Bromo-4-hydroxy-6-(methyloxy)-2-oxo-2′,3′,5′,6′-tetrahydro-spiro[naphthalene-1,4′-pyran]-3-yl)carbonyl)glycine] | > 7.00
14 | CCC1(C)C(=O)C(C(=O)NCC(=O)O)=C(O)c2cc(Cl)ccc21 (centres unmarked) [Example 15, N-((6-Chloro-1-ethyl-4-hydroxy-1-methyl-2-oxo-naphthalen-3-yl)carbonyl)glycine] | 6.30 to 7.00

Continued, values first:

Row | pIC50 | Structure (SMILES)
15 | > 7.00 | C[C@@]1(C#N)C(=O)C(C(=O)NCC(=O)O)=C(O)c2cc(F)ccc21 (single isomer, unassigned) [Example 135, (R)-2-(1-cyano-6-fluoro-4-hydroxy-1-methyl-2-oxo-1,2-dihydronaphthalene-3-carboxamido) acetic acid or (S)-2-(1-cyano-6-fluoro-4-hydroxy-1-methyl-2-oxo-1,2-dihydronaphthalene-3-carboxamido) acetic acid]
16 | > 7.00 | C[C@@]1(C#N)C(=O)C(C(=O)NCC(=O)O)=C(O)c2ccc(F)cc21 (single isomer, unassigned) [Example 137, (R)-2-(1-cyano-7-fluoro-4-hydroxy-1-methyl-2-oxo-1,2-dihydronaphthalene-3-carboxamido) acetic acid or (S)-2-(1-cyano-7-fluoro-4-hydroxy-1-methyl-2-oxo-1,2-dihydronaphthalene-3-carboxamido) acetic acid]
17 | > 7.00 | CC1(C#N)C(=O)C(C(=O)NCC(=O)O)=C(O)c2ccc(Br)cc21 (single isomer, unassigned) [Example 139]
18 | > 7.00 | CC1(C#N)C(=O)C(C(=O)NCC(=O)O)=C(O)c2ccc(Cl)cc21 (single isomer, unassigned) [Example 141]
19 | > 7.00 | C[C@@]1(C#N)C(=O)C(C(=O)NCC(=O)O)=C(O)c2cc(F)c(F)cc21 (single isomer, unassigned) [Example 142, (R)-2-(1-cyano-6,7-difluoro-4-hydroxy-1-methyl-2-oxo-1,2-dihydronaphthalene-3-carboxamido) acetic acid or (S)-2-(1-cyano-6,7-difluoro-4-hydroxy-1-methyl-2-oxo-1,2-dihydronaphthalene-3-carboxamido) acetic acid]
20 | > 7.00 | O=C(O)CNC(=O)C1=C(O)c2cc(Cl)ccc2C2(CCOCC2)C1=O [Example 1, N-((6-Chloro-4-hydroxy-2-oxo-2′,3′,5′,6′-tetrahydro-2H-spiro[naphthalene-1,4′-pyran]-3-yl)carbonyl)glycine]
21 | > 7.00 | CC1(C)C(=O)C(C(=O)NCC(=O)O)=C(O)c2cc(Cl)ccc21 [Example 2, N-((6-Chloro-4-hydroxy-1,1-dimethyl-2-oxo-naphthalen-3-yl)carbonyl)glycine]
22 | > 7.00 | O=C(O)CNC(=O)C1=C(O)c2cc(C(F)(F)F)ccc2C2(CCOCC2)C1=O [Example 3, N-((4-Hydroxy-2-oxo-6-(trifluoromethyl)-2′,3′,5′,6′-tetrahydro-2H-spiro[naphthalene-1,4′-pyran]-3-yl)carbonyl)glycine]
23 | > 7.00 | CC1(C)C(=O)C(C(=O)NCC(=O)O)=C(O)c2cc(C(F)(F)F)ccc21 [Example 4, N-((4-Hydroxy-1,1-dimethyl-2-oxo-6-(trifluoromethyl)-naphthalen-3-yl)carbonyl)glycine]
24 | > 7.00 | CC1(C)C(=O)C(C(=O)NCC(=O)O)=C(O)c2cc(-c3cccnc3)ccc21 [Example 5, N-((4-Hydroxy-1,1-dimethyl-2-oxo-6-(3-pyridinyl)-naphthalen-3-yl)carbonyl)glycine]
25 | > 7.00 | O=C(O)CNC(=O)C1=C(O)c2cc(Cl)ccc2[C@@]2(CCOC2)C1=O [Example 10, N-(((3R)-6′-Chloro-4′-hydroxy-2′-oxo-4,5-dihydro-spiro[furan-3,1′-naphthalen]-3′-yl)carbonyl)glycine]
26 | > 7.00 | O=C(O)CNC(=O)C1=C(O)c2cc(Cl)ccc2[C@]2(CCOC2)C1=O [Example 11, N-(((3S)-6′-Chloro-4′-hydroxy-2′-oxo-4,5-dihydro-spiro[furan-3,1′-naphthalen]-3′-yl)carbonyl)glycine]
